Measurements reported in PubChem BioAssay (NCI).
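Exposure lasted 48 hours, with cells grown in 96-well plates and compounds tested at five concentrations. GI50 marks 50% less growth. TGI: total growth inhibition.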

How the values were obtained:
Assay in all cases: DTP human tumour cell line panel, 48 h
786-0 renal = tested on: 786-0 renal
A498 renal = tested on: A498 renal
A549 NSCLC = tested on: A549 NSCLC
ACHN renal = tested on: ACHN renal
BT-549 breast = tested on: BT-549 breast
CAKI-1 renal = tested on: CAKI-1 renal
CCRF-CEM leukemia = tested on: CCRF-CEM leukemia
COLO 205 colon = tested on: COLO 205 colon
DU-145 prostate = tested on: DU-145 prostate
EKVX NSCLC = tested on: EKVX NSCLC
HCC-2998 colon = tested on: HCC-2998 colon
HCT-116 colon = tested on: HCT-116 colon
HCT-15 colon = tested on: HCT-15 colon
HL-60(TB) leukemia = tested on: HL-60(TB) leukemia
HOP-62 NSCLC = tested on: HOP-62 NSCLC
HOP-92 NSCLC = tested on: HOP-92 NSCLC
HT29 colon = tested on: HT29 colon
IGROV1 ovarian = tested on: IGROV1 ovarian
KM12 colon = tested on: KM12 colon
M14 melanoma = tested on: M14 melanoma
MALME-3M melanoma = tested on: MALME-3M melanoma
MCF7 breast = tested on: MCF7 breast
MDA-MB-231 breast = tested on: MDA-MB-231 breast
MDA-MB-435 = tested on: MDA-MB-435
MOLT-4 leukemia = tested on: MOLT-4 leukemia
NCI-H226 lung = tested on: NCI-H226 lung
NCI-H23 lung = tested on: NCI-H23 lung
NCI-H460 lung = tested on: NCI-H460 lung
NCI/ADR-RES ovarian = tested on: NCI/ADR-RES ovarian
OVCAR-3 ovarian = tested on: OVCAR-3 ovarian
OVCAR-4 ovarian = tested on: OVCAR-4 ovarian
OVCAR-5 ovarian = tested on: OVCAR-5 ovarian
OVCAR-8 ovarian = tested on: OVCAR-8 ovarian
PC-3 prostate = tested on: PC-3 prostate
RPMI-8226 leukemia = tested on: RPMI-8226 leukemia
RXF 393 renal = tested on: RXF 393 renal
SF-295 CNS = tested on: SF-295 CNS
SF-539 CNS = tested on: SF-539 CNS
SK-MEL-2 melanoma = tested on: SK-MEL-2 melanoma
SK-MEL-28 melanoma = tested on: SK-MEL-28 melanoma
SK-MEL-5 melanoma = tested on: SK-MEL-5 melanoma
SK-OV-3 ovarian = tested on: SK-OV-3 ovarian
SN12C renal = tested on: SN12C renal
SNB-19 CNS = tested on: SNB-19 CNS
SNB-75 CNS = tested on: SNB-75 CNS
SR leukemia = tested on: SR leukemia
SW-620 colon = tested on: SW-620 colon
T-47D breast = tested on: T-47D breast
TK-10 renal = tested on: TK-10 renal
U251 CNS = tested on: U251 CNS
UACC-257 melanoma = tested on: UACC-257 melanoma
UACC-62 melanoma = tested on: UACC-62 melanoma
UO-31 renal = tested on: UO-31 renal

With Cc1ccc(-c2nc(/C=N/Nc3cc(C)nc4ccc(Cl)cc34)c(C)o2)cc1 the GI50 (786-0 renal) was 1420 nM, the TGI (786-0 renal) was 2760 nM and the GI50 (A498 renal) was 1610 nM. It also gave a TGI (A498 renal) of 3770 nM, a GI50 (A549 NSCLC) of 1830 nM and a TGI (A549 NSCLC) of 3770 nM. The GI50 (ACHN renal) was 1680 nM, the TGI (ACHN renal) was 3050 nM and the GI50 (BT-549 breast) was 1720 nM. The TGI (BT-549 breast) was 3270 nM, the GI50 (CAKI-1 renal) was 1740 nM and the TGI (CAKI-1 renal) was 3190 nM. It also gave a GI50 (CCRF-CEM leukemia) of 1610 nM, a TGI (CCRF-CEM leukemia) of 4810 nM and a GI50 (COLO 205 colon) of 1760 nM. For the same compound, the TGI (COLO 205 colon) was 3570 nM, the GI50 (DU-145 prostate) was 2490 nM and the TGI (DU-145 prostate) was 6670 nM. For the same compound, the GI50 (EKVX NSCLC) was 1700 nM, the TGI (EKVX NSCLC) was 3210 nM and the GI50 (HCC-2998 colon) was 2070 nM. The TGI (HCC-2998 colon) was 3770 nM, the GI50 (HCT-116 colon) was 1790 nM and the TGI (HCT-116 colon) was 3230 nM. It also gave a GI50 (HCT-15 colon) of 549 nM, a TGI (HCT-15 colon) of 2080 nM and a GI50 (HL-60(TB) leukemia) of 1120 nM. For the same compound, the TGI (HL-60(TB) leukemia) was 2970 nM, the GI50 (HOP-62 NSCLC) was 1880 nM and the TGI (HOP-62 NSCLC) was 3580 nM. It also gave a GI50 (HOP-92 NSCLC) of 1430 nM, a TGI (HOP-92 NSCLC) of 2980 nM and a GI50 (HT29 colon) of 664 nM. It also gave a TGI (HT29 colon) of 2500 nM, a GI50 (IGROV1 ovarian) of 1810 nM and a TGI (IGROV1 ovarian) of 3480 nM. It also gave a GI50 (KM12 colon) of 1880 nM, a TGI (KM12 colon) of 3880 nM and a GI50 (M14 melanoma) of 1800 nM. The TGI (M14 melanoma) was 3490 nM, the GI50 (MALME-3M melanoma) was 1940 nM and the TGI (MALME-3M melanoma) was 3670 nM. The GI50 (MCF7 breast) was 1630 nM, the TGI (MCF7 breast) was 3200 nM and the GI50 (MDA-MB-231 breast) was 1810 nM. For the same compound, the TGI (MDA-MB-231 breast) was 3480 nM, the GI50 (MDA-MB-435) was 1690 nM and the TGI (MDA-MB-435) was 3250 nM. It also gave a GI50 (MOLT-4 leukemia) of 2020 nM, a TGI (MOLT-4 leukemia) of 4880 nM and a GI50 (NCI-H226 lung) of 1840 nM. It also gave a TGI (NCI-H226 lung) of 3720 nM, a GI50 (NCI-H23 lung) of 2170 nM and a TGI (NCI-H23 lung) of 4480 nM. The GI50 (NCI-H460 lung) was 1930 nM, the TGI (NCI-H460 lung) was 3790 nM and the GI50 (NCI/ADR-RES ovarian) was 2100 nM. It also gave a TGI (NCI/ADR-RES ovarian) of 4670 nM, a GI50 (OVCAR-3 ovarian) of 1940 nM and a TGI (OVCAR-3 ovarian) of 3560 nM. For the same compound, the GI50 (OVCAR-4 ovarian) was 1800 nM, the TGI (OVCAR-4 ovarian) was 3420 nM and the GI50 (OVCAR-5 ovarian) was 1720 nM. It also gave a TGI (OVCAR-5 ovarian) of 3390 nM, a GI50 (OVCAR-8 ovarian) of 1650 nM and a TGI (OVCAR-8 ovarian) of 4130 nM. For the same compound, the GI50 (PC-3 prostate) was 2260 nM, the TGI (PC-3 prostate) was 5650 nM and the GI50 (RPMI-8226 leukemia) was 1690 nM. For the same compound, the TGI (RPMI-8226 leukemia) was 4200 nM, the GI50 (RXF 393 renal) was 1450 nM and the TGI (RXF 393 renal) was 2940 nM. It also gave a GI50 (SF-295 CNS) of 1800 nM, a TGI (SF-295 CNS) of 3310 nM and a GI50 (SF-539 CNS) of 1780 nM. It also gave a TGI (SF-539 CNS) of 3290 nM, a GI50 (SK-MEL-2 melanoma) of 2010 nM and a TGI (SK-MEL-2 melanoma) of 4110 nM. For the same compound, the GI50 (SK-MEL-28 melanoma) was 1810 nM, the TGI (SK-MEL-28 melanoma) was 3290 nM and the GI50 (SK-MEL-5 melanoma) was 1760 nM. The TGI (SK-MEL-5 melanoma) was 3150 nM, the GI50 (SK-OV-3 ovarian) was 1780 nM and the TGI (SK-OV-3 ovarian) was 3210 nM. The GI50 (SN12C renal) was 1790 nM, the TGI (SN12C renal) was 3490 nM and the GI50 (SNB-19 CNS) was 1840 nM. The TGI (SNB-19 CNS) was 3490 nM, the GI50 (SNB-75 CNS) was 1550 nM and the TGI (SNB-75 CNS) was 3200 nM. It also gave a GI50 (SR leukemia) of 339 nM, a TGI (SR leukemia) of 1390 nM and a GI50 (SW-620 colon) of 485 nM. For the same compound, the TGI (SW-620 colon) was 2070 nM, the GI50 (T-47D breast) was 1800 nM and the TGI (T-47D breast) was 3720 nM. For the same compound, the GI50 (TK-10 renal) was 1800 nM, the TGI (TK-10 renal) was 3320 nM and the GI50 (U251 CNS) was 1830 nM. For the same compound, the TGI (U251 CNS) was 3390 nM, the GI50 (UACC-257 melanoma) was 1710 nM and the TGI (UACC-257 melanoma) was 3310 nM. It also gave a GI50 (UACC-62 melanoma) of 1770 nM, a TGI (UACC-62 melanoma) of 3430 nM and a GI50 (UO-31 renal) of 1620 nM. The TGI (UO-31 renal) was 2980 nM.
